In the CheMixHub viscosity set:

Test: xn = mol fraction of the nth substance listed

Cc1ncc(C[n+]2csc(CCO)c2C)c(N)n1.Cl.[Cl-] + O
Conditions | viscosity [mPa·s]
293.15 K, 101 kPa, x1 = 0.00036 | 1.014
293.15 K, 101 kPa, x1 = 0.00072 | 1.027
293.15 K, 101 kPa, x1 = 0.00108 | 1.041
293.15 K, 101 kPa, x1 = 0.00144 | 1.057
293.15 K, 101.3 kPa, x1 = 0.000445 | 1.015
293.15 K, 101.3 kPa, x1 = 0.000886 | 1.029
293.15 K, 101.3 kPa, x1 = 0.00177 | 1.063
293.15 K, 101.3 kPa, x1 = 0.002215 | 1.08
298.15 K, 101 kPa, x1 = 0.00036 | 0.9013
298.15 K, 101 kPa, x1 = 0.000364 | 0.9024
298.15 K, 101 kPa, x1 = 0.000385 | 0.914
298.15 K, 101 kPa, x1 = 0.000657 | 0.914
298.15 K, 101 kPa, x1 = 0.00072 | 0.9129
298.15 K, 101 kPa, x1 = 0.000731 | 0.929
298.15 K, 101 kPa, x1 = 0.000952 | 0.9244
298.15 K, 101 kPa, x1 = 0.00107 | 0.941
298.15 K, 101 kPa, x1 = 0.00108 | 0.9266
298.15 K, 101 kPa, x1 = 0.00125 | 0.9372
298.15 K, 101 kPa, x1 = 0.00144 | 0.9406
298.15 K, 101 kPa, x1 = 0.00145 | 0.96
298.15 K, 101 kPa, x1 = 0.00155 | 0.9488
298.15 K, 101 kPa, x1 = 0.001658 | 0.9532
298.15 K, 101 kPa, x1 = 0.001695 | 0.9545
298.15 K, 101 kPa, x1 = 0.001856 | 0.959
298.15 K, 101 kPa, x1 = 0.001922 | 0.98
298.15 K, 101 kPa, x1 = 0.002519 | 0.9786
298.15 K, 101 kPa, x1 = 0.002881 | 1.013
298.15 K, 101 kPa, x1 = 0.003713 | 1.05
298.15 K, 101 kPa, x1 = 0.003828 | 1.034
298.15 K, 101 kPa, x1 = 0.004291 | 1.055
298.15 K, 101 kPa, x1 = 0.004534 | 1.083
298.15 K, 101 kPa, x1 = 0.005245 | 1.097
298.15 K, 101 kPa, x1 = 0.005408 | 1.111
298.15 K, 101 kPa, x1 = 0.007149 | 1.185
298.15 K, 101 kPa, x1 = 0.00796 | 1.228
298.15 K, 101 kPa, x1 = 0.009056 | 1.254
298.15 K, 101 kPa, x1 = 0.009864 | 1.281
298.15 K, 101.3 kPa, x1 = 0.000445 | 0.902
298.15 K, 101.3 kPa, x1 = 0.000886 | 0.916
298.15 K, 101.3 kPa, x1 = 0.00133 | 0.931
298.15 K, 101.3 kPa, x1 = 0.00177 | 0.947
298.15 K, 101.3 kPa, x1 = 0.002215 | 0.963
303.15 K, 101 kPa, x1 = 0.00036 | 0.8078
303.15 K, 101 kPa, x1 = 0.00072 | 0.8185
303.15 K, 101 kPa, x1 = 0.00108 | 0.8322
303.15 K, 101 kPa, x1 = 0.00144 | 0.8443
303.15 K, 101.3 kPa, x1 = 0.000445 | 0.808
303.15 K, 101.3 kPa, x1 = 0.000886 | 0.822
303.15 K, 101.3 kPa, x1 = 0.00133 | 0.836
303.15 K, 101.3 kPa, x1 = 0.00177 | 0.85
303.15 K, 101.3 kPa, x1 = 0.002215 | 0.864
308.15 K, 101 kPa, x1 = 0.00036 | 0.729
308.15 K, 101 kPa, x1 = 0.000364 | 0.7301
308.15 K, 101 kPa, x1 = 0.000657 | 0.7393
308.15 K, 101 kPa, x1 = 0.00072 | 0.7391
308.15 K, 101 kPa, x1 = 0.000952 | 0.7485
308.15 K, 101 kPa, x1 = 0.00108 | 0.7506
308.15 K, 101 kPa, x1 = 0.00125 | 0.7576
308.15 K, 101 kPa, x1 = 0.00144 | 0.7631
308.15 K, 101 kPa, x1 = 0.00155 | 0.768
308.15 K, 101 kPa, x1 = 0.001658 | 0.7726
308.15 K, 101 kPa, x1 = 0.001695 | 0.7711
308.15 K, 101 kPa, x1 = 0.001856 | 0.7772
308.15 K, 101 kPa, x1 = 0.002519 | 0.8005
308.15 K, 101 kPa, x1 = 0.003828 | 0.837
308.15 K, 101 kPa, x1 = 0.004291 | 0.8515
308.15 K, 101 kPa, x1 = 0.005245 | 0.8799
308.15 K, 101.3 kPa, x1 = 0.000445 | 0.73
308.15 K, 101.3 kPa, x1 = 0.000886 | 0.743
308.15 K, 101.3 kPa, x1 = 0.00177 | 0.77
308.15 K, 101.3 kPa, x1 = 0.002215 | 0.783
313.15 K, 101 kPa, x1 = 0.00036 | 0.6623
313.15 K, 101 kPa, x1 = 0.00072 | 0.6722
313.15 K, 101 kPa, x1 = 0.00108 | 0.6831
313.15 K, 101 kPa, x1 = 0.00144 | 0.6947
313.15 K, 101.3 kPa, x1 = 0.000445 | 0.664
313.15 K, 101.3 kPa, x1 = 0.000886 | 0.676
313.15 K, 101.3 kPa, x1 = 0.00133 | 0.689
313.15 K, 101.3 kPa, x1 = 0.00177 | 0.702
313.15 K, 101.3 kPa, x1 = 0.002215 | 0.713
318.15 K, 101 kPa, x1 = 0.000364 | 0.6037
318.15 K, 101 kPa, x1 = 0.000657 | 0.6116
318.15 K, 101 kPa, x1 = 0.000952 | 0.6196
318.15 K, 101 kPa, x1 = 0.00125 | 0.6275
318.15 K, 101 kPa, x1 = 0.00155 | 0.6343
318.15 K, 101 kPa, x1 = 0.001658 | 0.6377
318.15 K, 101 kPa, x1 = 0.001695 | 0.6389
318.15 K, 101 kPa, x1 = 0.001856 | 0.6413
318.15 K, 101 kPa, x1 = 0.002519 | 0.6591
318.15 K, 101 kPa, x1 = 0.003828 | 0.6919
318.15 K, 101 kPa, x1 = 0.005245 | 0.7256
318.15 K, 101.3 kPa, x1 = 0.000445 | 0.606
318.15 K, 101.3 kPa, x1 = 0.000886 | 0.618
318.15 K, 101.3 kPa, x1 = 0.00133 | 0.63
318.15 K, 101.3 kPa, x1 = 0.00177 | 0.642
318.15 K, 101.3 kPa, x1 = 0.002215 | 0.653
